# Measured values published in US10766899B2, “Methods for preparing substituted imidazo[4,5-b]pyrazines” (Cytokinetics, Inc., priority 2006, dated 2020).
# Where “and” joins values, the source holds several entries; their conditions need not be identical. Equal values may be shown once.
# Tested on: SKM MF
# Assay: SKM MF AC1.4: ATPase of skeletal sarcomeric proteins (actin, tropomyosin, troponin complex, myosin), PK/LDH coupled enzyme system
# Type: biochemical
# Conditions: screen at pCa=6.5; † mean value, ‡ median value
# Procedure: For example, test compounds can be assayed in a highly parallel fashion by using multiwell plates by placing the compounds either individually in wells or testing them in mixtures. Assay components including the target protein complex, coupling enzymes and substrates, and ATP can then be added to the wells and the absorbance or fluorescence of each well of the plate can be measured with a plate reader.
# In some embodiments, the method uses a 384 well plate format and a 25 μL reaction volume. A pyruvate kinase/lactate dehydrogenase coupled enzyme system (Huang T G and Hackney D D. (1994) J Biol Chem 269(23):16493-501) can be used to measure the rate of ATP hydrolysis in each well. As will be appreciated by those in the art, the assay components are added in buffers and reagents. The incubation periods can be optimized to give adequate detection signals over the background. The assay can be done in real time giving the kinetics of ATP hydrolysis which increases the signal to noise ratio of the assay.
# Actin was purified by first preparing an ether powder of cardiac muscle (Zot H G and Potter J D. (1981) Preparative Biochemistry 11:381-395) as described below. Subsequently, actin was cycled between the filamentous and soluble state through rounds of centrifugation and dialysis (Spudich J A and Watt S. (1971) J. Biol. Chem. 246:4866-4871). It was stored in the filamentous state at 4° C.
# Tropomyosin was extracted from the ether powder and separated from the other proteins based on pH dependent precipitations followed by successive ammonium sulfate cuts at 53% and 65% (Smillie L B. (1981) Methods Enzymol 85 Pt B:234-41). The troponins were isolated as an intact complex of TnC, TnT, and TnI. Ether powder is extracted in a high salt buffer. Successive ammonium sulfate cuts of 30% and 45% were done; the precipitate was solubilized by dialysis into a low salt buffer and then further purified on a DEAE Toyopearl column with a 25-350 mM KCl gradient.
# Just prior to screening, the actin, tropomyosin, and troponin complex are mixed together in the desired ratio (e.g., 7:1:1) to achieve maximal calcium regulation of the actin filament. The screen is conducted at a pCa=6.5. This calcium concentration is in the physiological range during muscle contraction.
# To measure the generation of ADP during the reaction, a pyruvate kinase/lactate dehydrogenase/NADH coupled enzyme system (PK/LDH) is added to the actin. The myosin is kept separately. The plates are read in real time so that kinetic curves are obtained. These compounds are in DMSO and were already spotted onto the bottoms of 384 well plates at 10 to 40 μg/ml final concentration.
# • 1. Obtain ˜1000 g skeletal muscle, such as rabbit skeletal muscle. • 2. Grind twice; extract with 2 L solution A for 15 min while stirring; add 4 L cold H2O, filter through gauze; dilute with cold H2O to ionic strength of 0.04, (about 10-fold); let settle for 3 h; collect precipitate at 7,000 rpm in GSA rotor for 15 min. • 3. Disperse pellet in 220 ml solution B; dialyze overnight against 6 L solution C; slowly add ˜400 ml equal volume cold distilled H2O; stir for 30 min; centrifuge at 10,000 rpm for 10 min in GSA rotor. • 4. Centrifuge supernatant at 19,000 rpm for 1 h. • 5. Dilute supernatant to ionic strength of 0.04 (˜8-fold); let myosin settle overnight; collect about 5-6 L fluffy myosin precipitate by centrifuging at 10,000 rpm for 10 min in GSA rotor. • 6. Resuspend pellet in minimal volume of solution G; dialyze overnight against 2 L solution D; centrifuge at 19,000 rpm for 2 h, in cellulose nitrate tubes; puncture tubes and separate myosin from fat and insoluble pellet. • 7. Dilute supernatant to 5-10 mg/ml and dialyze against solution E extensively, load onto DEAE-sephadex column. • 8. […]
row,SKM MF AC1.4,Compound
1,0.6 µM,"1-(ethylpropyl)-6-(1-methylvinyl)imidazo[4,5-b]pyrazin-2-ol"
2,29.6 µM,"1-(ethylpropyl)-6-(methylethyl)imidazo[4,5-b]pyrazin-2-ol"
3,46.64 µM,"6-(1H-1,2,3-triazol-4-yl)-1-(ethylpropyl)imidazo[4,5-b]pyrazin-2-ol"
4,0.7 µM,"6-bromo-1-(propylbutyl)imidazo[4,5-b]pyrazin-2-ol"
5,8.58 µM,"6-ethyl-1-(ethylpropyl)imidazo[4,5-b]pyrazin-2-ol"
6,11.5 µM,"CCC(CC)n1c(O)nc2nc(Br)cnc21 [5-bromo-1-(pentan-3-yl)-1H-imidazo[4,5-b]pyrazin-2-ol]"
7,0.4 µM,"CCC(CC)n1c(O)nc2ncc(SC)nc21 [6-(methylthio)-1-(pentan-3-yl)-1H-imidazo[4,5-b]pyrazin-2-ol]"
8,3.2^† μM,"CCC(CN1CCN(S(C)(=O)=O)CC1)n1c(O)nc2ncc(Br)nc21 (stereo not drawn) [6-bromo-1-(1-(4-(methylsulfonyl)piperazin-1-yl)butan-2-yl)-1H-imidazo[4,5-b]pyrazin-2-ol]"
9,14.9 µM,"CCC(CN1CCN(C)CC1)n1c(O)nc2ncc(Br)nc21 (stereo not drawn) [6-bromo-1-(1-(4-methylpiperazin-1-yl)butan-2-yl)-1H-imidazo[4,5-b]pyrazin-2-ol]"
10,43.8 µM,"CCC(CN(C)C)n1c(O)nc2ncc(Br)nc21 (stereo not drawn) [6-bromo-1-(1-(dimethylamino)butan-2-yl)-1H-imidazo[4,5-b]pyrazin-2-ol]"
11,45.7 µM,"CCC(CNC)n1c(O)nc2ncc(Br)nc21 (stereo not drawn) [6-bromo-1-(1-(methylamino)butan-2-yl)-1H-imidazo[4,5-b]pyrazin-2-ol]"
12,4.9 µM,"CCC(COC)n1c(O)nc2ncc(Br)nc21 (stereo not drawn) [6-bromo-1-(1-methoxybutan-2-yl)-1H-imidazo[4,5-b]pyrazin-2-ol]"
13,16.4^‡ μM,"CC(C)(CN1CCOCC1)n1c(O)nc2ncc(Br)nc21 [6-bromo-1-(2-methyl-1-morpholinopropan-2-yl)-1H-imidazo[4,5-b]pyrazin-2-ol]"
14,0.25 µM,"CCC(CC)n1c(O)nc2ncc(Br)nc21 [6-bromo-1-(pentan-3-yl)-1H-imidazo[4,5-b]pyrazin-2-ol]"
15,10.4 µM,"Oc1nc2ncc(Br)nc2n1C1CCCCC1 [6-bromo-1-cyclohexyl-1H-imidazo[4,5-b]pyrazin-2-ol]"
16,6.0 µM,"CC(C)n1c(O)nc2ncc(Br)nc21 [6-bromo-1-isopropyl-1H-imidazo[4,5-b]pyrazin-2-ol]"
17,0.8 µM,"CC(C)(C)n1c(O)nc2ncc(Br)nc21 [6-bromo-1-tert-butyl-1H-imidazo[4,5-b]pyrazin-2-ol]"
18,0.7 µM,"CCC(CC)n1c(O)nc2ncc(Cl)nc21 [6-chloro-1-(ethylpropyl)imidazo[4,5-b]pyrazin-2-ol]"
19,2.2^‡ μM,"CCC(CC)n1c(O)nc2ncc(OC)nc21 [6-methoxy-1-(pentan-3-yl)-1H-imidazo[4,5-b]pyrazin-2-ol]"
20,0.53 µM,"CCC(CC)n1c(O)nc2ncc(C)nc21 [6-methyl-1-(pentan-3-yl)-1H-imidazo[4,5-b]pyrazin-2-ol]"
21,6.1 µM,"C/C=C/c1cnc2nc(O)n(C3CCCCC3)c2n1 [(E)-1-cyclohexyl-6-(prop-1-enyl)-1H-imidazo[4,5-b]pyrazin-2-ol]"

# Continued, compound first:
row,Compound,SKM MF AC1.4
1,"1-(ethylpropyl)-6-(1-methylpyrazol-4-yl)imidazo[4,5-b]pyrazin-2-ol",15 µM
2,"1-(ethylpropyl)-6-{2-[1-(ethylpropyl)-2-hydroxyimidazo[4,5-e]pyrazin-6-yl]ethynyl}imidazo[4,5-b]pyrazin-2-ol",19.32 µM
3,"CCC(CN)n1c(O)nc2ncc(Br)nc21 (stereo not drawn) [1-(1-aminobutan-2-yl)-6-bromo-1H-imidazo[4,5-b]pyrazin-2-ol]",1.1 µM
4,"CCC(CN1CCOCC1)n1c(O)nc2nccnc21 (stereo not drawn) [1-(1-morpholinobutan-2-yl)-1H-imidazo[4,5-b]pyrazin-2-ol]",>49 µM
5,"C=Cc1cnc2nc(O)n(C(CC)CC)c2n1 [1-(ethylpropyl)-6-vinylimidazo[4,5-b]pyrazin-2-ol]",2.3 µM
6,"CCC(CC)n1c(O)nc2nccnc21 [1-(pentan-3-yl)-1H-imidazo[4,5-b]pyrazin-2-ol]",16.0^† μM
7,"CCC(CC)n1c(O)nc2ncc(O)nc21 [1-(pentan-3-yl)-1H-imidazo[4,5-b]pyrazine-2,6-diol]",>49 µM
8,"CCC(CC)n1c(O)nc2nc3ccccc3nc21 [1-(pentan-3-yl)-1H-imidazo[4,5-b]quinoxalin-2-ol]",19.8 µM
9,"CC#Cc1cnc2nc(O)n(C(CC)CC)c2n1 [1-(pentan-3-yl)-6-(prop-1-ynyl)-1H-imidazo[4,5-b]pyrazin-2-ol]",>49 µM
10,"CCC(CC)n1c(O)nc2ncc(C(F)(F)F)nc21 [1-(pentan-3-yl)-6-(trifluoromethyl)-1H-imidazo[4,5-b]pyrazin-2-ol]",10.4^‡ μM
11,"C#Cc1cnc2nc(O)n([C@H](CC)CN3CCOCC3)c2n1 [1-[(1R)-1-(morpholin-4-ylmethyl)propyl]-6-ethynylimidazo[4,5-b]pyrazin-2-ol]",0.13 µM
12,"CC(C)C[C@H](CN1CCOCC1)n1c(O)nc2ncc(Br)nc21 [1-[(1R)-3-methyl-1-(morpholin-4-ylmethyl)butyl]-6-bromoimidazo[4,5-b]pyrazin-2-ol]",0.5 µM
13,"CSc1cnc2nc(O)n(Cc3ccccc3)c2n1 [1-benzyl-6-(methylthio)-1H-imidazo[4,5-b]pyrazin-2-ol]",22.6 µM
14,"Oc1nc2ncc(Br)nc2n1Cc1ccccc1 [1-benzyl-6-bromo-1H-imidazo[4,5-b]pyrazin-2-ol]",23.5 µM
15,"CSc1cnc2nc(O)n(C3CCCCC3)c2n1 [1-cyclohexyl-6-(methylthio)-1H-imidazo[4,5-b]pyrazin-2-ol]",13.9 µM
16,"CSc1cnc2nc(O)n(C(C)C)c2n1 [1-isopropyl-6-(methylthio)-1H-imidazo[4,5-b]pyrazin-2-ol]",6.7 µM
17,"CCC(C(=O)N1CCOCC1)n1c(O)nc2ncc(Br)nc21 (stereo not drawn) [2-(6-bromo-2-hydroxy-1H-imidazo[4,5-b]pyrazin-1-yl)-1-morpholinobutan-1-one]",>49 µM
18,"CCC(C(=O)O)n1c(O)nc2ncc(Br)nc21 (stereo not drawn) [2-(6-bromo-2-hydroxy-1H-imidazo[4,5-b]pyrazin-1-yl)butanoic acid]",>49 µM
19,"CCC(CC)n1c(O)nc2ncc(C#N)nc21 [2-hydroxy-1-(pentan-3-yl)-1H-imidazo[4,5-b]pyrazine-6-carbonitrile]",36.4 µM
20,"CCC(CC)n1c(O)nc2ncc(N(C)C)nc21 [6-(dimethylamino)-1-(pentan-3-yl)-1H-imidazo[4,5-b]pyrazin-2-ol]",2.2 µM and 2.79 µM
21,"C/C=C/c1cnc2nc(O)n(C(CC)CC)c2n1 [(E)-1-(pentan-3-yl)-6-(prop-1-enyl)-1H-imidazo[4,5-b]pyrazin-2-ol]",0.4 µM

# Same assay, conditions: screen at pCa=6.5; † mean value, ‡ median value; listed as 1-(1,1-dimethyl-2-morpholin-4-ylethyl)-6-bromoimidazo[4,5-b]pyrazin-2-ol
row,SKM MF AC1.4,Compound
1,19.11 µM,"CC(C)(CN1CCOCC1)n1c(O)nc2ncc(Br)nc21 [6-bromo-1-(2-methyl-1-morpholinopropan-2-yl)-1H-imidazo[4,5-b]pyrazin-2-ol]"

# Same assay, conditions: screen at pCa=6.5; † mean value, ‡ median value; listed as 1-(ethylpropyl)-6-(trifluoromethyl)imidazo[4,5-b]pyrazin-2-ol
row,SKM MF AC1.4,Compound
1,10.37 µM,"CCC(CC)n1c(O)nc2ncc(C(F)(F)F)nc21 [1-(pentan-3-yl)-6-(trifluoromethyl)-1H-imidazo[4,5-b]pyrazin-2-ol]"

# Same assay, conditions: screen at pCa=6.5; † mean value, ‡ median value; listed as 1-(ethylpropyl)-6-methoxyimidazo[4,5-b]pyrazin-2-ol
row,SKM MF AC1.4,Compound
1,2.20 µM,"CCC(CC)n1c(O)nc2ncc(OC)nc21 [6-methoxy-1-(pentan-3-yl)-1H-imidazo[4,5-b]pyrazin-2-ol]"

# Same assay, conditions: screen at pCa=6.5; † mean value, ‡ median value; listed as 1-(pentan-3-yl)-6-(trifluoromethyl)-1H-imidazo[4,5-b]pyrazin-2(3H)-one
row,SKM MF AC1.4,Compound
1,10.4^‡ μM,"CCC(CC)n1c(O)nc2ncc(C(F)(F)F)nc21 [1-(pentan-3-yl)-6-(trifluoromethyl)-1H-imidazo[4,5-b]pyrazin-2-ol]"

# Same assay, conditions: screen at pCa=6.5; † mean value, ‡ median value; listed as 6-bromo-1-(2-methyl-1-morpholinopropan-2-yl)-1H-imidazo[4,5-b]pyrazin-2(3H)-one
row,SKM MF AC1.4,Compound
1,16.4^‡ μM,"CC(C)(CN1CCOCC1)n1c(O)nc2ncc(Br)nc21 [6-bromo-1-(2-methyl-1-morpholinopropan-2-yl)-1H-imidazo[4,5-b]pyrazin-2-ol]"

# Same assay, conditions: screen at pCa=6.5; † mean value, ‡ median value; listed as 6-methoxy-1-(pentan-3-yl)-1H-imidazo[4,5-b]pyrazin-2(3H)-one
row,SKM MF AC1.4,Compound
1,2.2^‡ μM,"CCC(CC)n1c(O)nc2ncc(OC)nc21 [6-methoxy-1-(pentan-3-yl)-1H-imidazo[4,5-b]pyrazin-2-ol]"
